Key:
A2780cisR = assay: Resazurin reduction cell viability assay, A2780cisR; type: cell-based, human; conditions: for resistance factor, RF = IC50 A2780cisR/IC50 A2780: 72 h, rounded to the nearest unity; for IC50: 72 h of treatment, cisplatin-resistant, mean ± sd
Experimental: The compounds under investigation were tested on a panel of commercial human cancer cell lines: ovarian endometrioid adenocarcinoma A2780 (ICLC HTL98008), its cisplatin-resistant variant A2780cisR (ECACC 93112517), colon carcinoma HCT 116 (ECACC 91091005), breast invasive ductal carcinoma MCF7 (ECACC 86012803), embryonal carcinoma NTERA-2 clone D1 (also known as NT2/D1, ICLC HTL97025), and lung adenocarcinoma A549 (ICLC HTL03001). Furthermore, a cell line derived from the pleural effusion of a patient with untreated malignant pleural mesothelioma (MPM) was added to the panel, namely, MM98 (sarcomatoid phenotype). Commercial cells were purchased from the European Collection of Authenticated Cell Cultures (ECACC, UK) or the Interlab Cell Line Collection (ICLC, Genoa, Italy), while the MM98 cell line was obtained from the Pathology Unit of the National Hospital of Alessandria (Italy).
The following media were used to grow the cells: RPMI 1640 (for A2780, A2780cisR, NT2/D1, and A549 cells), DMEM (for MCF7 cells), DMEM supplemented with nonessential amino acids (for MM98 cells), and McCoy's 5A (for HCT 116 cells). All media contained L-glutamine (2 mM) and were added with penicillin (100 IU·mL^−1), streptomycin (100 mg·L^−1), and 10% heat inactivated FBS. To maintain resistance in A2780cisR cells, cisplatin (1 μM) was added to the medium every two passages.
Continuous treatments (CT) were carried out at 37°C in a humidified chamber with 5% CO2. Cisplatin was dissolved in a 0.9% w/v NaCl aqueous solution and brought to pH = 3 with HCl (final stock concentration 1 mM). The Pt(IV) Complexes 1–3 were dissolved in milliQ water (final stock concentration 5 mM) and stored at −20°C. The stock concentration was confirmed with inductively coupled plasma-mass spectrometry (ICP-MS) measurements. The mother solutions were diluted in a complete medium to the required concentration.
To assess the growth inhibition of the compounds under investigation, a cell viability test (i.e., the resazurin reduction assay) was used. In brief, 2–5 × 10^3 cells per well (depending on the cell line) were seeded in black sterile tissue culture-treated 96-well plates. At the end of the treatment (72 h), viability was evaluated with 100 μg·mL^−1 resazurin (Acros Chemicals, France) in a fresh medium for 1 h at 37°C, and the amount of the reduced product, resorufin, was measured by fluorescence (excitation λ = 535 nm, emission λ = 595 nm) with a Tecan Infinite F200Pro plate reader (Tecan, Austria). In each experiment, cells were challenged with drug candidates at different concentrations, and the final data were calculated from at least three replicates of the same experiment performed in triplicate. The fluorescence of 8 wells containing a medium without cells was used as a blank. Fluorescence data were normalized to 100% cell viability for nontreated cells. The half-inhibiting concentration (IC50), defined as the concentration of the drug that reduces cell viability by 50%, was obtained from the dose-response sigmoid using Origin Pro (version 8, Microcal Software Inc., Northampton, MA, USA).

[1] = Stability in cell culture medium (HPLC-MS); type: physicochemical; conditions: 72 h, 37°C, dark, RPMI 1640 + 10% FBS, 100 μM
Experimental: The stability in the solution of Complexes 1–3 (100 μM) was studied by aging the compounds for 72 h at 37°C in the dark in the same cell culture medium employed for the A2780 cell line (i.e., RPMI 1640 medium added with 10% fetal bovine serum, FBS). The area of the chromatographic peaks of the Pt complexes was monitored in HPLC-MS, using a 70 : 30 mixture of 15 mM aqueous HCOOH and CH3OH as the mobile phase (see Section 2.3, settings i), for further instrumental details). ESI mass spectra, recorded using cone and capillary voltages of +30 V (positive ion mode) and 2.70 kV, were used to confirm the identity of the species.

SMILES | resistance factor, RF = IC50 A2780cisR/IC50 A2780 (A2780cisR) | IC50 (A2780cisR) [µM] | remaining intact, % of the original HPLC peak [1] [%] | partial hydrolysis [1]
N.N.[Cl][Pt][Cl] [Cisplatin, (SP-4-2)-diamminedichloridoplatinum(II)] | 13 | 6.22 ± 1.02 | – | –
N.N.[OH][Pt]([OH])([Cl])[Cl] [Complex 1, (OC-6-33)-diamminedichloridodihydroxidoplatinum(IV)] | 14 | 52.1 ± 3.48 | > 95 | –
CC(=O)[O][Pt]([OH])([Cl])[Cl].N.N [Complex 2, (OC-6-44)-acetatodiamminedichloridohydroxidoplatinum(IV)] | 6 | 1.02 ± 0.68 | – | approximately 40%
CC(=O)[O][Pt]([NH2])([NH2])([Cl])([Cl])[O]C(C)=O [Complex 3, (OC-6-33)-diamminedichloridodiacetatoplatinum(IV)] | – | > 100 | > 85 | –

Source: publication PMC9822769, “The Strange Case: The Unsymmetric Cisplatin-Based Pt(IV) Prodrug [Pt(CH3COO)Cl2(NH3)2(OH)] Exhibits Higher Cytotoxic Activity with respect to Its Symmetric Congeners due to Carrier-Mediated Cellular Uptake” (Bioinorganic Chemistry and Applications, 2022)
